Source: EP0479899B1, “VASODILATORY AND IMMUNE SUPPRESSANT PEPTIDES” (THE PRESIDENT AND FELLOWS OF HARVARD COLLEGE, priority 1989, dated 1991)
Where no end group is shown, it is not given here.

System: Human macrophages
Assay: H₂O₂ production by IFN-γ activated macrophages (scopoletin fluorometric assay)
Assay type: cell-based
Conditions: 3 hrs preincubation, up to 1000 ng/ml (2.5 X 10⁻⁷M); IFN-γ 200 units/ml; 3 days

Calcitonin: neuropeptide derived from the same gene as CGRP, available commercially (CGNLSTCMLGTYTQDFNKFHTFPQTAIGVGAP; ends and bridges not checked; cysteine pairing not given here; UniProt P01258 85-116, looked up)
inhibition of H₂O₂ production by macrophages: inhibit H₂O₂ production by macrophages to a degree similar to that seen with CGRP
